Patent US10172839B2, “Use of short term starvation regimen in combination with kinase inhibitors to enhance traditional chemo-drug efficacy and feasibility and reverse side effects of kinases in normal cells and tissues” (UNIVERSITY OF SOUTHERN CALIFORNIA, priority 2014, dated 2019)

What was measured:
[1] = Blood glucose levels in mice treated with STS, rapamycin, and rapamycin with STS; format: in vivo
Description: Methods: Short term starvation (STS) or fasting mimicking diet (FMD) were administrated bi-weekly for periods of 48 h or 4 days, respectively. The end of the dietary intervention coincided with the administration of doxorubicin by intravenous injection. The animals were given a period of 10 to 12 days to recover bodyweight between one cycle of dietary intervention and the next. […] One-way ANOVA test was performed and differences with p-value<0.05 were considered significant (p-value<0.05, 0.01 and 0.001 are indicated as *, […], respectively).

[2] = Stress resistance experiment: survival after high dose doxorubicin

Question: With `CO[C@H]1C[C@@H]2CC[C@@H](C)[C@@](O)(O2)C(=O)C(=O)N2CCCC[C@H]2C(=O)O[C@H]([C@H](C)C[C@@H]2CC[C@@H](O)[C@H](OC)C2)CC(=O)[C@H](C)/C=C(\C)[C@@H](O)[C@@H](OC)C(=O)[C@H](C)C[C@H](C)/C=C/C=C/C=C/1C` [rapamycin] as the compound, how does the blood glucose ([1]; Rapa+STS/FMD mice (FIG. 1A)) read?
Answer: The blood glucose was “decreased blood glucose”.

Question: What about the blood glucose ([1]; rapamycin alone, intraperitoneally every day, ad lib feeding (FIG. 1A)) of the same compound?
Answer: Its blood glucose is “increase of blood glucose”.

Question: And the “mortality / survival at day 20” value ([2]; rapamycin 14 days + STS 48 h prior to doxorubicin 24 mg/kg iv (FIG. 2B))?
Answer: The value was “STS can reverse the sensitization of normal tissue to chemotherapy induced by rapamycin”.

Question: And the “mortality / survival at day 20” value ([2]; rapamycin 14 days, then doxorubicin 24 mg/kg iv, ad lib feeding (FIG. 2B))?
Answer: The value was “increased mortality”.
